In paper PMC10949930 (ACS Chemical Biology, 2024):
In brackets after ≈: the same amount, converted by molar mass.

Tests used:
S. aureus NCTC8325 [1] = assay: Pore-forming assay, SYTO9/propidium iodide costaining; assay type: cell-based, Staphylococcus aureus; conditions: 4× MIC; nisin 100 μg mL^–1; 35 min
B. subtilis 168 cells = assay: Membrane dye FM 5–95 labeling after compound exposure; assay type: cell-based, Bacillus subtilis; conditions: B. subtilis 168, 1× MIC, 15 min; CCCP 100 μM
[2] = tested on: GFP-MinD in B. subtilis cells; assay: GFP-MinD localization; assay type: cell-based, Bacillus subtilis; conditions: 10 min, 1× MIC, CCCP 100 μM
S. aureus = conditions: atropisomers compared; cited from earlier work
S. aureus NCTC8325 [3] = assay: MIC, broth microdilution; assay type: cell-based; conditions: Staphylococcus aureus, NCTC8325, 20 h, read-out: MIC S. aureus NCTC8325
B. subtilis 168 = assay: MIC, broth microdilution; assay type: cell-based; conditions: Bacillus subtilis, 168, 20 h, read-out: MIC B. subtilis 168
S. aureus NCTC8325 cells = assay: Protonophore assay, intracellular pH by BCECF AM; assay type: cell-based, Staphylococcus aureus; conditions: 1× MIC, 10 min; for intracellular pH after compound addition: dropped from pH 7.8

Molecule	membrane integrity / pore formation (SYTO9/propidium iodide) (S. aureus NCTC8325 [1])	MIC (S. aureus NCTC8325 [3]) [ng/mL]	MIC (B. subtilis 168) [ng/mL]	drop of intracellular pH (Δ) (S. aureus NCTC8325 cells) [pH units]	intracellular pH after compound addition (S. aureus NCTC8325 cells)	other results
nisin [reference compound]	clear red fluorescence indicative of pore formation	–	–	–	–	–
N#CC(C#N)=NNc1cccc(Cl)c1 [CCCP, carbonyl cyanide m-chlorophenyl hydrazone]	–	–	–	–	–	localization of membrane dye FM 5–95 after treatment (B. subtilis 168 cells): aggregated, inhomogeneous, “spotty” localization; GFP-MinD localization after treatment [2]: diffuse and spotty
O=C(c1ccccc1O)c1[nH]c(Cl)c(Cl)c1-n1c(C(=O)c2ccccc2O)cc(Cl)c1Cl (atropisomer, axis not shown; (M)) [(−)-(M)-MarA]	–	–	–	–	–	potency against S. aureus (S. aureus): equal potency
Oc1c(Cl)cc(Cl)cc1-c1[nH]c(Cl)c(Cl)c1Cl [compound 3, pentachloropseudilin]	only green fluorescence	4 (≈ 0.0121 µM)	4 (≈ 0.0121 µM)	0.2	7.6	–
Oc1c(Br)cc(Br)cc1-c1[nH]c(Br)c(Br)c1Br [compound 2, pentabromopseudilin]	–	16 (≈ 0.0289 µM)	16 (≈ 0.0289 µM)	0.2	7.6	–
